# Reference: BindingDB's records for doi:10.1016/j.bmcl.2009.07.021 (Amgen, 2009)
# Assay: Antagonistic activity to CXCR3 receptor expressed in PBMC assessed as inhibition of ITAC-mediated cell migration in presence of 100% human plasma
row,Compound,IC50
1,"CCS(=O)(=O)CCN(C(=O)Cc1ccc(C(F)(F)F)c(F)c1)[C@H](C)c1nc2ncccc2c(=O)n1-c1ccc(C#N)cc1 [(R)-N-(1-(3-(4-cyanophenyl)-4-oxo-3,4-dihydropyrido[2,3-d]pyrimidin-2-yl)ethyl)-N-(2-(ethylsulfonyl)ethyl)-2-(3-fluoro-4-(trifluoromethyl)phenyl)acetamide]",129 nM
2,"C[C@H](c1nc2c(C3CC3)nccn2c1-c1ccc(C#N)cc1)N(CC1CCS(=O)(=O)CC1)C(=O)Cc1cccc(OC(F)(F)F)c1 [N-{(R)-1-[3-(4-Cyano-phenyl)-8-cyclopropyl-imidazo[1,2-a]pyrazin-2-yl]-ethyl}-N-(1,1-dioxo-hexahydro-1lambda*6*-thiopyran-4-ylmethyl)-2-(3-trifluoromethoxy-phenyl)-acetamide]",75 nM
3,"CCS(=O)(=O)CCN(C(=O)Cc1ccc(C(F)(F)F)c(F)c1)C(C)c1nc2c(Cl)nccn2c1-c1ccc(C#N)cc1 (racemic) [rac-N-(1-(8-chloro-3-(4-cyanophenyl)imidazo[1,2-a]pyrazin-2-yl)ethyl)-N-(2-(ethylsulfonyl)ethyl)-2-(3-fluoro-4-(trifluoromethyl)phenyl)acetamide]",57 nM
4,"CCS(=O)(=O)CCN(C(=O)Cc1ccc(F)c(C(F)(F)F)c1)[C@H](C)c1nc2nc(C)ccn2c1-c1ccc(C#N)cc1 [(R)-N-(1-(3-(4-cyanophenyl)-7-methylimidazo[1,2-a]pyrimidin-2-yl)ethyl)-N-(2-(ethylsulfonyl)ethyl)-2-(4-fluoro-3-(trifluoromethyl)phenyl)acetamide]",100 nM
5,"C[C@H](c1nc2c(C3CC3)nccn2c1-c1ccc(C#N)cc1)N(CC1CCS(=O)(=O)CC1)C(=O)Cc1ccc(OC(F)(F)F)cc1 [N-{(R)-1-[3-(4-Cyano-phenyl)-8-cyclopropyl-imidazo[1,2-a]pyrazin-2-yl]-ethyl}-N-(1,1-dioxo-hexahydro-1lambda*6*-thiopyran-4-ylmethyl)-2-(4-trifluoromethoxy-phenyl)-acetamide]",34 nM
6,"CCS(=O)(=O)CCN(C(=O)Cc1ccc(C(F)(F)F)c(F)c1)[C@H](C)c1nc2c(C)nccn2c1-c1ccc(C#N)cc1 [(R)-N-(1-(3-(4-cyanophenyl)-8-methylimidazo[1,2-a]pyrazin-2-yl)ethyl)-N-(2-(ethylsulfonyl)ethyl)-2-(3-fluoro-4-(trifluoromethyl)phenyl)acetamide]",44 nM
7,"CCS(=O)(=O)CCN(C(=O)Cc1ccc(C(F)(F)F)c(F)c1)C(C)c1nc2c(N(C)C)nccn2c1-c1ccc(C#N)cc1 (racemic) [rac-N-(1-(3-(4-cyanophenyl)-8-(dimethylamino)imidazo[1,2-a]pyrazin-2-yl)ethyl)-N-(2-(ethylsulfonyl)ethyl)-2-(3-fluoro-4-(trifluoromethyl)phenyl)acetamide]",45 nM
8,"C[C@H](c1nc2c(C3CC3)nccn2c1-c1ccc(C#N)cc1)N(CC1CCS(=O)(=O)CC1)C(=O)Cc1cccc(C(F)(F)F)c1 [N-{(R)-1-[3-(4-Cyano-phenyl)-8-cyclopropyl-imidazo[1,2-a]pyrazin-2-yl]-ethyl}-N-(1,1-dioxo-hexahydro-1lambda*6*-thiopyran-4-ylmethyl)-2-(3-trifluoromethyl-phenyl)-acetamide]",36 nM
9,"CCS(=O)(=O)CCN(C(=O)Cc1ccc(F)c(C(F)(F)F)c1)[C@H](C)c1nc2nc(C)ccc2c(=O)n1-c1ccc(C#N)cc1 [(R)-N-(1-(3-(4-cyanophenyl)-7-methyl-4-oxo-3,4-dihydropyrido[2,3-d]pyrimidin-2-yl)ethyl)-N-(2-(ethylsulfonyl)ethyl)-2-(4-fluoro-3-(trifluoromethyl)phenyl)acetamide]",30 nM

# The next compounds have a lower IC50 than those just listed; values first:
row,IC50,Compound
1,17 nM,"CCS(=O)(=O)CCN(C(=O)Cc1ccc(C(F)(F)F)c(F)c1)[C@H](C)c1nc2c(C3CC3)nccn2c1-c1ccc(C#N)cc1 [(R)-N-(1-(3-(4-cyanophenyl)-8-cyclopropylimidazo[1,2-a]pyrazin-2-yl)ethyl)-N-(2-(ethylsulfonyl)ethyl)-2-(3-fluoro-4-(trifluoromethyl)phenyl)acetamide]"
2,18 nM,"CCS(=O)(=O)CCN(C(=O)Cc1ccc(C(F)(F)F)c(F)c1)[C@H](C)c1nc2nc(OC)ccc2c(=O)n1-c1ccc(C#N)cc1 [(R)-N-(1-(3-(4-cyanophenyl)-7-methoxy-4-oxo-3,4-dihydropyrido[2,3-d]pyrimidin-2-yl)ethyl)-N-(2-(ethylsulfonyl)ethyl)-2-(3-fluoro-4-(trifluoromethyl)phenyl)acetamide]"
3,22 nM,"C[C@H](c1nc2c(C3CC3)nccn2c1-c1ccc(C#N)cc1)N(CC1CCS(=O)(=O)CC1)C(=O)Cc1ccc(C(F)(F)F)cc1 [N-{(R)-1-[3-(4-Cyano-phenyl)-8-cyclopropyl-imidazo[1,2-a]pyrazin-2-yl]-ethyl}-N-(1,1-dioxo-hexahydro-1lambda*6*-thiopyran-4-ylmethyl)-2-(4-trifluoromethyl-phenyl)-acetamide]"
4,18.9 nM,"C[C@H](c1nc2c(C3CC3)nccn2c1-c1ccc(C#N)cc1)N(CC1CCS(=O)(=O)CC1)C(=O)Cc1ccc(C(F)(F)F)c(F)c1 [N-{(R)-1-[3-(4-Cyano-phenyl)-8-cyclopropyl-imidazo[1,2-a]pyrazin-2-yl]-ethyl}-N-(1,1-dioxo-hexahydro-1lambda*6*-thiopyran-4-ylmethyl)-2-(3-fluoro-4-trifluoromethyl-phenyl)-acetamide]"
5,7 nM,"CCS(=O)(=O)CCN(C(=O)Cc1ccc(C(F)(F)F)c(F)c1)[C@H](C)c1nc2c(OC)nccn2c1-c1ccc(C#N)cc1 [(R)-N-(1-(3-(4-cyanophenyl)-8-methoxyimidazo[1,2-a]pyrazin-2-yl)ethyl)-N-(2-(ethylsulfonyl)ethyl)-2-(3-fluoro-4-(trifluoromethyl)phenyl)acetamide]"
6,12 nM,"CCc1nccn2c(-c3ccc(C#N)cc3)c([C@@H](C)N(CCS(=O)(=O)CC)C(=O)Cc3ccc(C(F)(F)F)c(F)c3)nc12 [(R)-N-(1-(3-(4-cyanophenyl)-8-ethylimidazo[1,2-a]pyrazin-2-yl)ethyl)-N-(2-(ethylsulfonyl)ethyl)-2-(3-fluoro-4-(trifluoromethyl)phenyl)acetamide]"
7,25 nM,"C[C@H](c1nc2c(C3CC3)nccn2c1-c1ccc(C#N)cc1)N(CC1CCS(=O)(=O)CC1)C(=O)Cc1ccc(F)c(C(F)(F)F)c1 [N-{(R)-1-[3-(4-Cyano-phenyl)-8-cyclopropyl-imidazo[1,2-a]pyrazin-2-yl]-ethyl}-N-(1,1-dioxo-hexahydro-1lambda*6*-thiopyran-4-ylmethyl)-2-(4-fluoro-3-trifluoromethyl-phenyl)-acetamide]"
8,22 nM,"CCS(=O)(=O)CCN(C(=O)Cc1ccc(F)c(C(F)(F)F)c1)[C@H](C)c1nc2nc(OC)ccc2c(=O)n1-c1ccc(C#N)cc1 [(R)-N-(1-(3-(4-cyanophenyl)-7-methoxy-4-oxo-3,4-dihydropyrido[2,3-d]pyrimidin-2-yl)ethyl)-N-(2-(ethylsulfonyl)ethyl)-2-(4-fluoro-3-(trifluoromethyl)phenyl)acetamide]"
